In ChEMBL document CHEMBL1136755, “Mapping property distributions of molecular surfaces: algorithm and evaluation of a novel 3D quantitative structure-activity relationship technique” (J Med Chem, 2003):

What was measured:
[1] = tested on: Oryctolagus cuniculus; assay: Eye irritation potential accessed using Draize in vivo rabbit eye irritation test; type: functional
[2] = target: T1, Muscarinic acetylcholine receptor M2 (Sus scrofa, UniProt P06199); assay: Ability to dissociate radioligand [3H]NMS from muscarinic acetylcholine receptor M2 of porcine heart
T1 sequence (P06199 whole entry): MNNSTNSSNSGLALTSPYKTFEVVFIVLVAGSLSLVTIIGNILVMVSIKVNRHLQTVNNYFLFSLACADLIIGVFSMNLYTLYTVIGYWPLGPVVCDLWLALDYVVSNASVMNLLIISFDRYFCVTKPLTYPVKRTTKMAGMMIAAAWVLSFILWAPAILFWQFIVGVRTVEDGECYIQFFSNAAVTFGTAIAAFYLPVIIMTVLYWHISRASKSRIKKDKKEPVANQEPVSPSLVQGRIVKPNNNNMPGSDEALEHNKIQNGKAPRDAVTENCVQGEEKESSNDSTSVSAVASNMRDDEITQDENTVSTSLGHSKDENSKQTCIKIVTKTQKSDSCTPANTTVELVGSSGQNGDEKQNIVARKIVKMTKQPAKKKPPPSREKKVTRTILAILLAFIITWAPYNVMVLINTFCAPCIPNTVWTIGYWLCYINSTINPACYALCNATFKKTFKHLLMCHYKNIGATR

[3] = target: T2, Corticosteroid-binding globulin (Homo sapiens) (UniProt P08185)
T2 sequence (whole entry): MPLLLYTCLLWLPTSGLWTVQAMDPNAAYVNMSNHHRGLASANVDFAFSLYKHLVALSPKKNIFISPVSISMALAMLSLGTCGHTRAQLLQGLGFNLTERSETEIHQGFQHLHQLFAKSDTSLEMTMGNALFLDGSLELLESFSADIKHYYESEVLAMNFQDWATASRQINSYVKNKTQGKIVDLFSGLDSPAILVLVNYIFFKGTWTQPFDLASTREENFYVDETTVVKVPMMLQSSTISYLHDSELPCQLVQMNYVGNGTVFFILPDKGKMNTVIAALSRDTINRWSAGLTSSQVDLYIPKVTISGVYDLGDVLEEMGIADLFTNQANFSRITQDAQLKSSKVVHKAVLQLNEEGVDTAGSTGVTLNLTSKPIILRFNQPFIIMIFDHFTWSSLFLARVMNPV
Description: Binding affinity towards corticosteroid-binding globulin (CBG)

[4] = target: T2, Corticosteroid-binding globulin (Homo sapiens); remark: listed apart in the source
Description: Binding affinity towards corticosteroid binding globulin (CBG)

## COC(=O)C(C)(C)C
[1]
  MES: 0.36

## CC(C)O [ISOPROPYL ALCOHOL]
[1]
  MES: 2.34

## C[N+](C)(CCCCCC[N+](C)(C)CCCN1C(=O)c2cccnc2C1=O)CCCN1C(=O)c2ccccc2C1=O
[2]
  EC50: 2.34 µM

## C[C@]12CCC(=O)C=C1CC[C@@H]1[C@@H]2C(=O)C[C@@]2(C)[C@H]1CC[C@]2(O)C(=O)CO
[3]
  Log K: 6.89

## CC(=O)[C@H]1CC[C@H]2[C@@H]3CCC4=CC(=O)CC[C@@H]4[C@H]3CC[C@]12C
[3]
  Log K: 6.82

## C[C@]12CC[C@H]3[C@@H](CCC4=CC(=O)CC[C@@H]43)[C@@H]1CC[C@@H]2O
[3]
  Log K: 6.14

## C[C@]12CC[C@H]3[C@@H](CCC4=CC(=O)CC[C@@]43C)[C@@H]1CC[C@@H]2C(=O)CO
[3]
  Log K: 7.65

## C[C@]12CC[C@H](O)CC1=CC[C@@H]1[C@@H]2CC[C@]2(C)C(=O)CC[C@@H]12
[3]
  Log K: 5

## C/C1=C/C=C\C(C)CCC1 (configuration not stated)
[1]
  MES: 0.44

## O=C1c2ccccc2C(=O)N1CCCN(CCCCCCN(CCCN1C(=O)c2ccccc2C1=O)C1CCCCC1)C1CCCCC1
[2]
  EC50: 0.045 µM

## C=Cc1ccccc1 [STYRENE]
[1]
  MES: 0.77

## C1=C\CCCCCC/1 [CYCLOOCTENE]
[1]
  MES: 0.43

## C=CCCC=C
[1]
  MES: 0.55

## OCC(O)CO [GLYCERIN]
[1]
  MES: 0.12

## CCCCO [BUTYL ALCOHOL]
[1]
  MES: 5.47

## N#CCCN(CCCCCCN(CCC#N)CCCN1C(=O)c2ccccc2C1=O)CCCN1C(=O)c2ccccc2C1=O
[2]
  EC50: 0.74 µM

## CCc1cccc(C)c1
[1]
  MES: 0.32

## O=[N+]([O-])c1ccc(F)cc1F
[1]
  MES: 0.4

## C[C@]12CCC(=O)C=C1CC[C@@H]1[C@@H]2[C@@H](O)C[C@]2(C=O)[C@@H](C(=O)CO)CC[C@@H]12
[4]
  Log K: 6.28

## C[N+](C)(CCCCCC[N+](C)(C)CCCN1C(=O)c2cccc3cccc(c23)C1=O)CCCN1C(=O)c2ccccc2C1=O
[2]
  EC50: 0.0631 µM

## C[C@@H]1C(=O)N(CCC[N+](C)(C)CCCCCCC[N+](C)(C)CCCN2C(=O)[C@H](C)[C@@H](C)C2=O)C(=O)[C@H]1C
[2]
  EC50: 12.1 µM

## C[N+](C)(CCCCCC[N+](C)(C)CCCN1C(=O)c2ccccc2C1=O)CCCN1C(=O)CCC1=O
[2]
  EC50: 9.77 µM

## CC(=O)[C@@]1(O)CC[C@H]2[C@@H]3CC[C@@H]4C[C@H](O)CC[C@]4(C)[C@H]3CC[C@@]21C
[3]
  Log K: 5

## CC(O)CO (configuration not stated) [PROPYLENE GLYCOL]
[1]
  MES: 0.1

## CCOCC(=O)O
[1]
  MES: 2.03

## CCOC(=O)CCCCCC[N+](C)(C)CCCN1C(=O)c2ccccc2C1=O
[2]
  EC50: 111 µM

## C[C@]12C[C@H](O)[C@H]3[C@@H](CCC4=CC(=O)CC[C@@]43C)[C@@H]1CC[C@@H]2C(=O)CO
[3]
  Log K: 7.88

## CCCCCC(C)=O
[1]
  MES: 2.26

## CCCCCCO [1-HEXANOL]
[1]
  MES: 8.13

## C[C@]12CCC(=O)C=C1CC[C@@H]1[C@@H]2CC[C@]2(C)C(=O)CC[C@@H]12
[3]
  Log K: 5.76

## C[C@]12CC[C@@H]3c4ccc(O)cc4CC[C@H]3[C@@H]1CC[C@@H]2O
[3]
  Log K: 5

## C[N+](C)(CCCCCC[N+](C)(C)CCCN1C(=O)c2cc3ccccc3cc2C1=O)CCCN1C(=O)c2ccccc2C1=O
[2]
  EC50: 0.148 µM

## OC1CCCCC1 [CYCLOHEXANOL]
[1]
  MES: 8.29

## CC(C)=O [ACETONE]
[1]
  MES: 4.83

## COc1ccc(CCN(C)CCCC(C#N)(c2ccc(OC)c(OC)c2)C(C)C)cc1OC (configuration not stated)
[2]
  EC50: 31 µM

## C[C@]12C[C@@H](O)[C@H]3[C@@H](CCC4=CC(=O)CC[C@@]43C)[C@@H]1CC[C@@H]2C(=O)CO
[3]
  Log K: 7.2

## CCCCOCCO [BUTOXYETHANOL]
[1]
  MES: 8.99

## C[C@@H]1C[C@@]2(C)C(=CC1=O)CC[C@H]1[C@@H]3CC[C@](O)(C(=O)CO)[C@@]3(C)C[C@H](O)[C@@]12F
[3]
  Log K: 5.8

## O=C1c2ccccc2C(=O)N1CCCCBr
[1]
  MES: 0.19

## CC(=O)[C@H]1[C@H](C)C[C@H]2[C@@H]3CCC4=CC(=O)CC[C@]4(C)[C@H]3CC[C@@]21C
[3]
  Log K: 7.12

## CC(C)c1cccc(C(C)C)c1
[1]
  MES: 0.38

## C[N+](C)(CCCCCCC[N+](C)(C)CCCN1C(=O)c2ccccc2C1=O)CCCN1C(=O)c2ccccc2C1=O
[2]
  EC50: 0.389 µM
